The first assay concerns rabbit normal intraocular pressure. Briefly: Intraocular pressure reducing action (Test Example 3). It counts as in vivo, Japanese white rabbit. The following applies: Oryctolagus cuniculus, topical; 3 mM aqueous solution, 50 μl to the left eye; max difference of left and right eyes at 2, 4 and 6 hours relative to value before administration; read-out: Intraocular pressure reducing degree. How it is done:
A Japanese white rabbit having a body weight of about 2 kg was placed in a positioner and naturalized for one week before the experiment. An ophthalmologic local anesthesant (Benoxil) was administered to both eyes, and then intraocular pressure was measured by using a tonometer (Classic 30, Solan). A 3 mM aqueous solution of a test compound was administered in a volume of 50 μl to the left eye, and the right eye was not treated (control eye). The intraocular pressure values were measured for the left and right eyes immediately before, and 2, 4 and 6 hours after the administration of the aqueous solution of the test compound, and the difference of the measured values for the left and right eyes was considered an intraocular pressure reduction value of the test medicament at each measurement time. The largest difference of the values for the left and right eyes among the measured values at the measurement times (after 2, 4 and 6 hours) was considered the maximum intraocular pressure reduction value (max ? IOP) of each test medicament. The intraocular pressure reducing degree representing the intraocular pressure reducing action of each test medicament was calculated according to the following formula. Since rabbits show significant daily variation of intraocular pressure, daily variation is added when change of intraocular pressure is measured over time, and the intraocular pressure reducing action may be overestimated. Therefore, we used this calculation method of intraocular pressure reduction value in order to minimize the influence of the variation. Intraocular pressure reducing degree(%)=(max ? IOP/Intraocular pressure value immediately before administration)×100
Regarding `CN[C@H]1CCN(S(=O)(=O)c2cccc3cncc(Br)c23)C1` [Example 1-3, (S)-1-(4-Bromo-5-isoquinolinesulfonyl)-3-(methylamino)pyrrolidine], the inhibition in vivo at 3000 µM is no less than 20%.
Still for that read-out and setting: the value for `COc1ccc(CN[C@H]2CCN(S(=O)(=O)c3cccc4cncc(Br)c34)C2)cc1` [Example 1-7] was 5 to 10%; that for `Cc1nc(CNC2CCN(S(=O)(=O)c3cccc4cncc(Br)c34)C2)c[nH]1` (stereo not drawn) [Example 1-19] was 5 to 10%.
For `Cn1cccc1CNC1CCN(S(=O)(=O)c2cccc3cncc(Br)c23)C1` (stereo not drawn) [Example 1-20], the inhibition in vivo at 3000 µM was in the range of 10 to 20%.
Turning to `NCCNC1CCN(S(=O)(=O)c2cccc3cncc(Br)c23)C1` (stereo not drawn) [Example 1-31], the inhibition in vivo at 3000 µM is 10 to 20%.
Turning to `CN[C@H]1CCN(S(=O)(=O)c2cccc3cncc(C)c23)C1` [Example 8-3], the inhibition in vivo at 3000 µM was no less than 20%.
`Cc1cncc2cccc(S(=O)(=O)N3CCC(NC(C)C)C3)c12` (stereo not drawn) [Example 8-27]: the inhibition in vivo at 3000 µM fell in the range of 10 to 20%.
For the molecule `Cc1cncc2cccc(S(=O)(=O)N3CCC(NC4CCC4)C3)c12` (stereo not drawn) [Example 8-28], the inhibition in vivo at 3000 µM was 5 to 10%.
Same read-out and setting: under `Cc1cncc2cccc(S(=O)(=O)N3CCC(NC4CCCC4)C3)c12` (stereo not drawn) [Example 8-29] stands 5 to 10%.
In the case of `Cc1cncc2cccc(S(=O)(=O)N3CCC(NC4CCCCC4)C3)c12` (stereo not drawn) [Example 8-30], the inhibition in vivo at 3000 µM was in the range of 5 to 10%.
For the molecule `Cc1cncc2cccc(S(=O)(=O)N3CCC(NC4CCOCC4)C3)c12` (stereo not drawn) [Example 8-31], the inhibition in vivo at 3000 µM was 10 to 20%.
For `Cc1cncc2cccc(S(=O)(=O)N3CCC(NCCN)C3)c12` (stereo not drawn) [Example 8-32], the inhibition in vivo at 3000 µM lay in the range of 5 to 10%.
For `C=CCNC1CCN(S(=O)(=O)c2cccc3cncc(C)c23)C1` (stereo not drawn) [Example 8-34], the inhibition in vivo at 3000 µM was 5 to 10%.
`Cc1cncc2cccc(S(=O)(=O)N3CCC(NCCc4ccccc4)C3)c12` (stereo not drawn) [Example 8-37]: the inhibition in vivo at 3000 µM is 5 to 10%.
On to `C#Cc1cncc2cccc(S(=O)(=O)N3CC[C@H](NCc4ccco4)C3)c12` [Example 10-14], for which the inhibition in vivo at 3000 µM is 5 to 10%.
Still for that read-out and setting: the value for `C#Cc1cncc2cccc(S(=O)(=O)N3CC[C@H](NC4CCOCC4)C3)c12` [Example 10-31] was no less than 20%; that for `CN[C@H]1CCN(S(=O)(=O)c2cccc3cncc(Cl)c23)C1` [Example 19-3, (S)-1-(4-Chloro-5-isoquinolinesulfonyl)-3-(methylamino)pyrrolidine] was no less than 20%.
The same measure, in the same setting: under `CCN[C@H]1CCN(S(=O)(=O)c2cccc3cncc(Cl)c23)C1` [Example 19-4] stands no less than 20%; under `O=S(=O)(c1cccc2cncc(Cl)c12)N1CC[C@H](NCc2ccco2)C1` [Example 19-14], 5 to 10%.
For the molecule `O=S(=O)(c1cccc2cncc(Cl)c12)N1CC[C@H](NCc2cccs2)C1` [Example 19-17], the inhibition in vivo at 3000 µM fell in the range of 5 to 10%.
In the case of `Cn1cccc1CN[C@H]1CCN(S(=O)(=O)c2cccc3cncc(Cl)c23)C1` [Example 19-21], the inhibition in vivo at 3000 µM is no less than 20%.
In the case of `O=S(=O)(c1cccc2cncc(Cl)c12)N1CC[C@H](NC2CCOCC2)C1` [Example 19-31], the inhibition in vivo at 3000 µM was no less than 20%.

Another assay concerns monkey intraocular pressure. In words: Intraocular pressure reduction enhancing action in monkey (Test Example 8). The following applies: cynomolgus monkey, 30 μL latanoprost (Xalatan) then 30 μL 19-1 compound aqueous solution, compared with single drug groups. It counts as in vivo. Here is the method: As for the test compound used for combination use, similar effect can be obtained also with the compounds of the present invention represented with the example numbers mentioned in Test Example 3. The test is performed by using cynomolgus monkeys sufficiently naturalized for the operation of fixation on a monkey chair and intraocular pressure measurement.
As the test compound, the 19-1 compound was dissolved in physiological saline, and the solution is neutralized by addition of sodium hydroxide (pH 7.0 to 8.0) to prepare a 0.01 weight % aqueous solution (19-1 compound aqueous solution). As a drug for combination use, latanoprost (trade name: Xalatan, Pfizer) is used as the marketed formulation per se. The test aqueous solution or the drug for combination use is instilled to the left eye, and the right eye is not treated (control eye). […] After initial intraocular pressure values of the monkeys are measured for each group, 30 μL of physiological saline is instilled to the control group, single drug group 1, and single drug group 2, and latanoprost is instilled in the same volume to the combination use group. […] Then, the intraocular pressure is measured over time for each group.
`N[C@H]1CCN(S(=O)(=O)c2cccc3cncc(Cl)c23)C1` [Example 19-1, (S)-3-Amino-1-(4-chloro-5-isoquinolinesulfonyl)pyrrolidine]: the “Intraocular pressure reducing action, combination use group” value was “exceeding those of both the single drug group 1 and single drug group 2”.

The same assay, now with this note: cynomolgus monkey, 30 μL of 0.01 weight % aqueous solution, compared with control group.
Take `N[C@H]1CCN(S(=O)(=O)c2cccc3cncc(Cl)c23)C1` [Example 19-1, (S)-3-Amino-1-(4-chloro-5-isoquinolinesulfonyl)pyrrolidine]: the “Intraocular pressure reducing action, single drug group 1” value is on record as “exceeding that of the control group”.

Values taken from patent US8415372B2, “Sulfonamide compound” (Asahi Kasei Pharma Corporation, priority 2007, dated 2013).
